Measured values published in patent US20200215065A1, “COMPOSITIONS AND METHOD FOR TREATING PULMONARY HYPERTENSION” (THE REGENTS OF THE UNIVERSITY OF COLORADO, a body corporate, priority 2017, published 2020).
≈ marks a conversion by molar mass, not a printed value.

How the values were obtained:
[1] = tested on: hypoxic pulmonary vasoconstriction (HPV) response; assay: Acute hypoxic rat model: pulmonary (PAP) and systemic (MAP) arterial pressure after treatment; format: in vivo
Description: Surgical procedures and hemodynamic measurements: Rats were anesthetized by intramuscular injection with ketamine/xylazine mixture (75 and 6 mg/kg, respectively). The ventral neck was shaved and a 2 cm incision was made in the right ventral neck where the jugular vein and right carotid artery were isolated via blunt dissection. A polyethylene (PE-50) catheter was introduced into the right carotid to measure systemic blood pressure. A polyvinyl (PV-1) catheter was inserted into the jugular vein and threaded through the right atrium, right ventricle, and into the lumen of the main pulmonary artery to obtain pulmonary arterial pressure. Fluid filled catheters were connected to pressure transducers and monitored continuously with the MP150 data acquisition system (BioPAC Systems; Goleta, Calif.). Blood pressures were recorded every two minutes for data analysis.
After completion of catheter placements and instrumentation for hemodynamic measurements, a 1 cm incision was made above the trachea, and the trachea was isolated by blunt dissection. A tracheotomy was performed approximately 4 mm above the carina and an endotracheal tube specially designed for rats was inserted such that the end of the tube was placed roughly 2 mm distal from the carina. This placement allowed the tip of a Microsprayer® attached to the FMJ-250 syringe (Penn-Century; Philadelphia, Pa.) to protrude approximately 1 mm from the trachea tube and deliver aerosolized emulsion to both right and left lung periphery (FIG. 1A).
Testing efficacy of intrapulmonary delivery of ambrisentan: following instrumentation and tracheotomy, anesthetized rats were placed in a specially designed Plexiglas box built to accommodate exteriorized catheters for completion of the study protocol (depicted graphically in FIG. 1B). Baseline PAP and mean systemic arterial pressure (MAP) were recorded. Next, rats were switched from breathing room air to a hypoxic gas mixture for 10 minutes. Acute hypoxia was induced in rats by exposure to 13% O2 (room air/nitrogen dilution; FIG. 1A). […] This first hypoxic challenge was followed by 20 minutes of room air breathing. […] During this period of room air breathing, rats were allowed to recover from hypoxia for 10 minutes prior to treatment administration via the Microsprayera Treatments were delivered as a 100-microliter bolus aerosol immediately following emulsification to avoid potential phase separation. Following treatment, rats remained breathing room air for an additional 10 minutes to allow drug absorption before being exposed to a second 10-minute hypoxic challenge. Following the second hypoxic challenge, rats returned to breathing room air and blood pressures were monitored for 15 minutes before animals were euthanized with intravenous injection of a euthanasia agent.
Intravenous infusion: As a reference to aid in understanding the response of intrapulmonary delivery of ambrisentan, an additional treatment group for intravenous (IV) infusion of ambrisentan was also investigated (5 mg/kg; 0.5 mL saline). […]
This study was conducted to test the use and efficacy of a water-in-fluorocarbon emulsion of this disclosure to encapsulate ambrisentan or sodium nitrite for intrapulmonary drug delivery. An acute hypoxic rat model was used, and pulmonary and systemic arterial pressure were recorded to determine efficacy of the drug delivery system for treatment of the acute hypoxic pulmonary vasoconstrictive response. […]

[2] = Solubility of ambrisentan in PBS; format: physicochemical; details: pH 7.8, aqueous buffer, pH raised to 7.8
Source text: The aqueous solution of ambrisentan was then mixed with Krytox and PFOB and emulsified as previously described.

solubility [2]	MAP during the second hypoxic challenge ([1]; in vivo)	SMILES	pulmonary arterial pressure compared to the empty emulsion ([1]; acute hypoxia, intrapulmonary emulsion, 0.1 mg/kg)	adverse effects (systemic arterial pressure during acute hypoxia) ([1]; intrapulmonary emulsion)	mean pulmonary arterial pressure when exposed to acute hypoxia ([1]; intrapulmonary emulsion, high dose 0.5 mg/kg)	adverse effects (systemic arterial pressure during acute hypoxia) ([1]; in vivo)
–	–	O=NO [sodium nitrite]	did not significantly change	no adverse effects were observed	significantly reduced	–
~100 mg/mL (≈ 264 mM)	did not further reduce	COC(c1ccccc1)(c1ccccc1)[C@H](Oc1nc(C)cc(C)n1)C(=O)O [ambrisentan]	–	–	–	no adverse effects were observed
